Non-standard residues stand in square brackets, D forms with d. Residues, ends and D or L forms follow the SMILES beside them. Gly(N-(CH2)6NH2) = NCCCCCCNCC(=O)O; Gly(N-2-aminoethyl) = NCCNCC(=O)O; Nspe = C[C@H](NCC(=O)O)c1ccccc1; Nphe = O=C(O)CNCc1ccccc1; Nlys = NCCCCNCC(=O)O
Experiments:
Assay type in all cases: cell-based
[1] = system: human erythrocytes; assay: Haemolytic assay; conditions: peptoid 100 µM, 37 °C, 1 h, absorbance 450 nm; positive control 1% Triton x-100; n = 3 independent experiments, 3 replicates each
Protocol: The haemolytic assay was employed to determine the potential cytotoxicity of the peptoids against human red blood cells. Blood samples were collected with ethical approval and informed consent in vacutainer containers with dipotassium ethylene- diaminetetraacetic acid (K2-EDTA). Blood was then transferred to a 50 mL tube and centrifuged at 1200× g for 5 min at room temperature. The supernatant was removed and PBS was added to the original volume of sample obtained. This step was repeated a further 3 times. The red blood cells were then diluted to 8% of their original volume for use in the haemolytic assay. A 1% solution of Triton x-100 in PBS served as a positive control, and PBS was used as a negative control.
Peptoids 1, 2, 3, 4, 5, 6, 7, 8 and 9 were diluted in PBS to 200 µM. A total volume of 100 µL of each peptoid was placed in the wells of a v-bottomed 96-well microtitre plate. Red blood cells (100 µL), prepared as outlined above, were then added. The final peptoid concentration in each well was therefore 100 µM. The plate was sealed with an adhesive film to prevent evaporation and incubated at 37 °C for 1 h. Following this time, the plate was centrifuged at 4000 RPM for 5 min to pellet unlysed red blood cells. Following this step, 100 µL of supernatant was carefully removed from each well and added to a flat-bottomed 96-well microtitre plate. The absorbance was read at 450 nm using a Tecan Genios (Männedorf, Switzerland) plate reader, and the percentage of red blood cells lysed was calculated.

[2] = system: human primary gingival fibroblasts; assay: MTT cell viability assay; conditions: peptoid 1 µM, 24 h, 37 °C; n = 3 independent experiments, 6 replicates each
Protocol: Cultured primary gingival fibroblast cells were obtained with ethical approval and informed consent, and were grown as previously described. Cells were seeded in 96-well plates at a concentration of 1 × 10^5 cells/mL (100 µL per well). Plates were incubated at 37 °C for 48 h to allow cells to reach confluence. Peptoids 1, 3, 4, 5, 6, 7 and 9 were diluted to 200 µM, 20 µM and 2 µM. The culture medium was removed and replaced with 50 µL of Dulbecco’s Modified Eagle’s Medium (DMEM) and 50 µL of the relevant peptoid. The cells were incubated for 24 h at 37 °C. After this time, 10 µL of 3-(4, 5- dimethylthiazol-2-yl)-2,5-diphenyltetrazolium bromide (MTT) reagent (Sigma-Aldrich, Poole, UK) was added to each well and the plate was incubated for a further 3 h at 37 °C. The medium was removed by aspiration and the wells were allowed to dry for 20 min. Then, 200 µL of dimethyl sulfoxide (DMSO) (Sigma-Aldrich, Poole, UK) was added to all wells and the plate was placed in an incubator for 30 min. The absorbance of the wells was read in a Tecan Genios (Männedorf, Switzerland) plate reader at 510 nm after 60 s of orbital shaking.

[3] = system: Fusobacterium nucleatum biofilm; assay: Biofilm inhibition assay with PMA-qPCR; conditions: strain NCTC 10562, anaerobic, 96-well plate, 48 h with peptoid + 48 h maturation, n = 3 independent experiments
Protocol: The F. nucleatum type strain (NCTC 10562, originally isolated from human, inflamed gingival tissue) was obtained from the National Collection of Type Cultures. The optical density (OD) of an overnight culture was measured spectrophotometrically at 570 nm and diluted with fresh broth to an OD of 0.30–0.35. The culture was further diluted 1 in 50 with anaerobic broth, giving a final inoculum concentration of approximately 5 × 10^6 CFU/mL. A biofilm inhibition assay was undertaken in a 96-well plate format. Peptoids 4 and 9 were added along with the inoculum (90 µL of inoculum in broth and 10 µL of peptoid solution) to each well, to yield peptoid concentrations of 1 µM and 10 µM. A solution containing 10 µL of PBS and 90 µL of anaerobic broth acted as an untreated control. Biofilms were allowed to develop in the presence of peptoids 4 or 9 for 48 h. After 48 h biofilm development, planktonic cells were removed by gently washing three times with PBS and then replacing the broth with 100 µL of fresh anaerobic broth prior to a further 48 h incubation for biofilm maturation. After this time, the wells were gently washed three times with 100 µL of PBS to remove planktonic cells. Plates were then sealed with parafilm, and the biofilms were dislodged from the wells in an ultrasonic bath for 20 min. Plates were then returned to the anaerobic cabinet and the dislodged biofilm samples were collected in Eppendorf tubes.
Propidium monoazide (PMA)-qPCR was undertaken essentially as previously described. Briefly, PMA (Biotium, Fremont, CA, USA), was diluted 1 in 50 with PBS. The diluted PMA was then added to the dislodged biofilm samples in a 1:1 ratio in an Eppendorf tube, to give a final PMA concentration of 200 µM. The Eppendorfs were incubated at 37 °C for 10 min in the dark and then placed under a broad spectrum LED floodlight (ELRD, HL60 ^0 LEDx Max 0.1V) for 10 min. During this time, the Eppendorfs were inverted several times. Bacterial DNA was then extracted using the Qiagen blood and tissue kit (Germantown, MD, USA) according to the manufacturer’s instructions. Briefly, bacterial samples released from biofilms were centrifuged at 14000 RPM for 6 min, and the supernatant was removed. Bacterial pellets were resuspended in 200 µL of AL buffer, and 25 µL of proteinase K was added to each Eppendorf. The suspensions were then heated to 56 °C for 30 min with shaking. Following this, 200 µL of ethanol was added to each Eppendorf and mixed gently. The contents were placed in fresh spin columns in 2 mL collection tubes. The spin columns were centrifuged at 8000 RPM for 2 min. The flow-through and the collection tubes were discarded. The spin columns were placed in fresh collection tubes, and 500 µL of AW1 buffer was added to each column. […]

C[C@@H](c1ccccc1)N(CC(N)=O)C(=O)CN(C(=O)CN(CCCCN)C(=O)CN(C(=O)CN(C(=O)CN(CCCCN)C(=O)CN(C(=O)CN(C(=O)CNCCCCN)[C@@H](C)c1ccccc1)[C@@H](C)c1ccccc1)[C@@H](C)c1ccccc1)[C@@H](C)c1ccccc1)[C@@H](C)c1ccccc1 [Peptoid 3] (H-[Nlys][Nspe][Nspe][Nlys][Nspe][Nspe][Nlys][Nspe][Nspe]-NH2; N-terminus assumed)
Percentage lysis of human erythrocytes [1]: ≥ 10%

NCCCCCCNCC(=O)N(CC(=O)N(CC(=O)N(CCCCCCN)CC(=O)N(CC(=O)N(CC(=O)N(CCCCCCN)CC(=O)N(CC(=O)N(CC(N)=O)Cc1ccccc1)Cc1ccccc1)Cc1ccccc1)Cc1ccccc1)Cc1ccccc1)Cc1ccccc1 [Peptoid 7] (H-[Gly(N-(CH2)6NH2)][Nphe][Nphe][Gly(N-(CH2)6NH2)][Nphe][Nphe][Gly(N-(CH2)6NH2)][Nphe][Nphe]-NH2; N-terminus assumed)
Percentage lysis of human erythrocytes [1]: less than 5%

NCCNCC(=O)N(CC(=O)N(CC(=O)N(CCN)CC(=O)N(CC(=O)N(CC(=O)N(CCN)CC(=O)N(CC(=O)N(CC(=O)N(CCN)CC(=O)N(CC(=O)N(CC(N)=O)Cc1ccccc1)Cc1ccccc1)Cc1ccccc1)Cc1ccccc1)Cc1ccccc1)Cc1ccccc1)Cc1ccccc1)Cc1ccccc1 [Peptoid 4, (NaeNpheNphe)4-NH2] (H-[Gly(N-2-aminoethyl)][Nphe][Nphe][Gly(N-2-aminoethyl)][Nphe][Nphe][Gly(N-2-aminoethyl)][Nphe][Nphe][Gly(N-2-aminoethyl)][Nphe][Nphe]-NH2; N-terminus assumed)
Percentage lysis of human erythrocytes [1]: ≥ 10%
Viability of gingival fibroblasts (MTT) vs untreated controls [2]: not to alter gingival fibroblast viability
F. nucleatum biofilm formation (live cell numbers by PMA-qPCR) ([3]; peptoid 1 µM): statistically significant reduction in biofilm formation
F. nucleatum biofilm formation (live cell numbers by PMA-qPCR) ([3]; peptoid 10 µM): statistically significant reduction in biofilm formation

NCCCCCCNCC(=O)N(CC(=O)N(CC(=O)N(CCCCCCN)CC(=O)N(CC(=O)N(CC(=O)N(CCCCCCN)CC(=O)N(CC(=O)N(CC(=O)N(CCCCCCN)CC(=O)N(CC(=O)N(CC(N)=O)Cc1ccccc1)Cc1ccccc1)Cc1ccccc1)Cc1ccccc1)Cc1ccccc1)Cc1ccccc1)Cc1ccccc1)Cc1ccccc1 [Peptoid 6] (H-[Gly(N-(CH2)6NH2)][Nphe][Nphe][Gly(N-(CH2)6NH2)][Nphe][Nphe][Gly(N-(CH2)6NH2)][Nphe][Nphe][Gly(N-(CH2)6NH2)][Nphe][Nphe]-NH2; N-terminus assumed)
Percentage lysis of human erythrocytes [1]: less than 5%

C[C@@H](c1ccccc1)N(CC(N)=O)C(=O)CN(C(=O)CN(CCCCCCN)C(=O)CN(C(=O)CN(C(=O)CN(CCCCCCN)C(=O)CN(C(=O)CN(C(=O)CNCCCCCCN)[C@@H](C)c1ccccc1)[C@@H](C)c1ccccc1)[C@@H](C)c1ccccc1)[C@@H](C)c1ccccc1)[C@@H](C)c1ccccc1 [Peptoid 9, (NahNspeNspe)3-NH2] (H-[Gly(N-(CH2)6NH2)][Nspe][Nspe][Gly(N-(CH2)6NH2)][Nspe][Nspe][Gly(N-(CH2)6NH2)][Nspe][Nspe]-NH2; N-terminus assumed)
Percentage lysis of human erythrocytes [1]: less than 5%
Viability of gingival fibroblasts (MTT) vs untreated controls [2]: not to alter gingival fibroblast viability
F. nucleatum biofilm formation (live cell numbers by PMA-qPCR) ([3]; peptoid 1 µM): statistically significant reduction in biofilm formation
F. nucleatum biofilm formation (live cell numbers by PMA-qPCR) ([3]; peptoid 10 µM): statistically significant reduction in biofilm formation

C[C@@H](c1ccccc1)N(CC(N)=O)C(=O)CN(C(=O)CN(CCN)C(=O)CN(C(=O)CN(C(=O)CN(CCN)C(=O)CN(C(=O)CN(C(=O)CNCCN)[C@@H](C)c1ccccc1)[C@@H](C)c1ccccc1)[C@@H](C)c1ccccc1)[C@@H](C)c1ccccc1)[C@@H](C)c1ccccc1 [Peptoid 5] (H-[Gly(N-2-aminoethyl)][Nspe][Nspe][Gly(N-2-aminoethyl)][Nspe][Nspe][Gly(N-2-aminoethyl)][Nspe][Nspe]-NH2; N-terminus assumed)
Percentage lysis of human erythrocytes [1]: ≥ 10%

NCCCCNCC(=O)N(CC(=O)N(CC(=O)N(CCCCN)CC(=O)N(CC(=O)N(CC(=O)N(CCCCN)CC(=O)N(CC(=O)N(CC(=O)N(CCCCN)CC(=O)N(CC(=O)N(CC(N)=O)Cc1ccccc1)Cc1ccccc1)Cc1ccccc1)Cc1ccccc1)Cc1ccccc1)Cc1ccccc1)Cc1ccccc1)Cc1ccccc1 [Peptoid 1] (H-[Nlys][Nphe][Nphe][Nlys][Nphe][Nphe][Nlys][Nphe][Nphe][Nlys][Nphe][Nphe]-NH2; N-terminus assumed)
Percentage lysis of human erythrocytes [1]: ≥ 10%

Source: publication PMC8398059, “Peptoids with Antibiofilm Activity against the Gram Negative Obligate Anaerobe, Fusobacterium nucleatum” (Molecules, 2021)
